Source: patent US11578079B2, “SUMO inhibitor compounds and uses thereof” (CITY OF HOPE, priority 2018, dated 2023)

How the values were obtained:
[1] = biological target: T1, SUMO (Homo sapiens, UniProt Q9UBT2); assay: SUMO activity (Table I, biological activities); assay type: biochemical; parameters: key: + (less active); ++ (active); +++ (most active)
T1 sequence (Q9UBT2 1-640): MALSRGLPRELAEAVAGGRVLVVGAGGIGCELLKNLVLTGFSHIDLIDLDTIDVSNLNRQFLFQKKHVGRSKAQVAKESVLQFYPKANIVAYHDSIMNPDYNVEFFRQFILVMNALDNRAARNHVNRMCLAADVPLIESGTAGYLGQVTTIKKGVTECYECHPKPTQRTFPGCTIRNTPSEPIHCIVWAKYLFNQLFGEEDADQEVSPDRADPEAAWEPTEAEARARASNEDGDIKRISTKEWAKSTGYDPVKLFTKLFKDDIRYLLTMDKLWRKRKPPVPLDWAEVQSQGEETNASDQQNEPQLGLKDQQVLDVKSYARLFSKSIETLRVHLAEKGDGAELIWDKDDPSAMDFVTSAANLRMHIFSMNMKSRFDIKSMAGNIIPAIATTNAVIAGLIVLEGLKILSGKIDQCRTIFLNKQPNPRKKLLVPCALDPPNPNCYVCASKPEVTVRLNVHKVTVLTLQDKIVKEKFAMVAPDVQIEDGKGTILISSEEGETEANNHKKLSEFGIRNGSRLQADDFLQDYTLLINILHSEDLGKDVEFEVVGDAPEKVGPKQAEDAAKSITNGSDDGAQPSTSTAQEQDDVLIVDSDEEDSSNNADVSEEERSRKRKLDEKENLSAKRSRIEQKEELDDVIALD
T1 sequence (Q9UBE0 1-346 partner): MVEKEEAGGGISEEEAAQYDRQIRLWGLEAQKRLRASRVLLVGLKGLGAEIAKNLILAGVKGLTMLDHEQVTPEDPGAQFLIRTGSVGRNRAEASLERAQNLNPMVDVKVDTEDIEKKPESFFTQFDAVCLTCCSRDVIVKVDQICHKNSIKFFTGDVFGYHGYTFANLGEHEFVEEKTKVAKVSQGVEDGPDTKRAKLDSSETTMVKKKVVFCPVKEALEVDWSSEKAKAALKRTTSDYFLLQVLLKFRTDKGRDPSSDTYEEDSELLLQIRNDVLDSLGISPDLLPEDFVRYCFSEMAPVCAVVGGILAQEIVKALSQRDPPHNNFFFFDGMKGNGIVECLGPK

[2] = tested on: c-Myc; assay: c-Myc activity (Table I, biological activities); parameters: key: + (less active); ++ (active); +++ (most active)

Row | SMILES | SUMO [1] | c-Myc [2]
1 | CCOC(=O)C1=C(C(=O)Nc2ccc(OC(F)(F)F)cc2)C2C=CC1(C(Nc1ccccc1)c1ccc(CN3CCOCC3)cc1)O2 (centres unmarked) [Compound 599] | ++ | ++
2 | COC(=O)C1=C(C(=O)Nc2cccc(F)c2C)C2C=CC1(C(Cc1ccccc1)Nc1ccccc1)O2 (centres unmarked) [Compound 359] | ++ | +
3 | COC(=O)C1=C(C(=O)NC2CCN(C)CC2)C2C=CC1(C(Cc1ccccc1)Nc1ccccc1F)O2 (centres unmarked) [Compound 272] | ++ | +
4 | COC(=O)C1=C(C(=O)NCCN(C)C)C2(C)C=CC1(C(Cc1ccccc1)Nc1ccccc1)O2 (centres unmarked) [Compound 594] | ++ | +
5 | CCN(CC)CCNC(=O)C1=C(C(=O)OC)C2(C(Cc3ccc(Cl)cc3)Nc3cc(F)cc(F)c3)C=CC1O2 (centres unmarked) [Compound 427] | ++ | ++
6 | COC(=O)C1=C(C(=O)NNc2ccc(F)c(F)c2)C2C=CC1(C(Cc1ccccc1)Nc1cc(F)cc(F)c1)O2 (centres unmarked) [Compound 314] | ++ | +
7 | COC(=O)C1=C(C(=O)NCCN2CCC2)C2C=CC1(C(Cc1ccccc1)Nc1ccccc1)O2 (centres unmarked) [Compound 469] | ++ | +
8 | COCCN1CCC(NC(=O)C2=C(C(=O)OC)C3(C(Cc4ccccc4)Nc4ccccc4)C=CC2O3)CC1 (centres unmarked) [Compound 278] | +++ | ++
9 | CCOC(=O)C1=C(C(=O)Nc2ccc(Oc3ccccc3)cc2)C2C=CC1(C(Nc1ccccc1)c1ccc(CN3CCOCC3)cc1)O2 (centres unmarked) [Compound 569] | + | +
10 | COC(=O)C1=C(C(=O)NCCN(C)C)C2C=CC1(C(Cc1ccccc1)Nc1ccccc1)O2 (centres unmarked) [Compound 224] | +++ | ++
11 | COC(=O)C1=C(C(=O)Nc2ccccc2)C2C=CC1(C(Cc1ccccc1)Nc1ccccc1)O2 (centres unmarked) [Compound 300] | +++ | +
12 | CCOC(=O)C1=C(C(F)(F)F)C2C=CC1(C1OCCO1)O2 (centres unmarked) [Compound 519] | ++ | +
13 | COC(=O)C1=C(C(=O)NC2CCN(C(C)C)CC2)C2C=CC1(C(Cc1ccccc1)Nc1ccccc1)O2 (centres unmarked) [Compound 277] | +++ | ++
14 | COC(=O)C1=C(C(=O)NCCN2CCCC2)C2C=CC1(C(Cc1ccc(C)cc1)Nc1cc(F)cc(F)c1)O2 (centres unmarked) [Compound 442] | +++ | ++
15 | CCOC(=O)C1=C(C(=O)N(C)C)C2C=CC1(C(Cc1ccccc1)Nc1ccccc1)O2 (centres unmarked) [Compound 593] | + | +
16 | COC(=O)CNC(=O)C1=C(C(=O)OC)C2(C(Cc3ccccc3)Nc3cc(F)cc(F)c3)C=CC1O2 (centres unmarked) [Compound 245] | +++ | ++
17 | COC(=O)C1=C(C(=O)NC(C)(C)C)C2C=CC1(C(Cc1ccccc1)Nc1ccccc1)O2 (centres unmarked) [Compound 161] | + | +
18 | COC(=O)C1=C(C(=O)NC2CCN(C(=O)c3c(C)cccc3C)CC2)C2C=CC1(C(Cc1ccccc1)Nc1ccccc1)O2 (centres unmarked) [Compound 381] | ++ | +
19 | COC(=O)C1=C(C(=O)OC)C2(C(Cc3ccccc3)Nc3cc(F)cc(F)c3)C=CC1O2 (centres unmarked) [Compound 167] | ++ | +
20 | CCN(CC)CCNC(=O)C1=C(C(=O)OC)C2(C(Cc3ccc(C(F)(F)F)cc3)Nc3ccccc3)C=CC1O2 (centres unmarked) [Compound 424] | ++ | ++
21 | CCOC(=O)C1=C(C(N)=O)C2C=CC1(C(Nc1ccccc1)c1ccc(CN3CCOCC3)cc1)O2 (centres unmarked) [Compound 552] | ++ | +
22 | COC(=O)C1=C(C(=O)NC2CCN(C)CC2)C2C=CC1(C(Cc1ccccc1)Nc1c(F)cccc1F)O2 (centres unmarked) [Compound 258] | ++ | +

Row | SMILES | SUMO [1] | c-Myc [2]
23 | CCOC(=O)C1=C(C(=O)Nc2c(C)cccc2CC)C2C=CC1(C(Nc1ccccc1)c1ccc(CN3CCOCC3)cc1)O2 (centres unmarked) [Compound 617] | ++ | ++
24 | COC(=O)C1=C(C(=O)NC2CCN(C(C)=O)CC2)C2CCC1(C(Cc1ccccc1)Nc1ccccc1)O2 (centres unmarked) [Compound 368] | + | +
25 | COC(=O)C1=C(C(=O)NCCN(C)C)C2C=CC1(C(Cc1ccccc1)Nc1ccc(F)cc1)O2 (centres unmarked) [Compound 264] | +++ | ++
26 | COC(=O)C1=C(C(=O)NC2CCN(C(=O)Cc3ccccc3)CC2)C2C=CC1(C(Cc1ccccc1)Nc1ccccc1)O2 (centres unmarked) [Compound 387] | ++ | +
27 | CCOc1cccc(NC(Cc2ccccc2)C23C=CC(O2)C(C(=O)Nc2ccncc2)=C3C(=O)OC)c1 (centres unmarked) [Compound 253] | ++ | +
28 | CCOC(=O)C1=C(C(=O)NCCN2CCCC2)C2C=CC1(C(Cc1ccccc1)Nc1ccccc1)O2 (centres unmarked) [Compound 564] | ++ | +
29 | CCOc1cccc(NC(Cc2ccccc2)C23C=CC(O2)C(C(N)=O)=C3C(=O)OC)c1 (centres unmarked) [Compound 249] | ++ | +
30 | COC(=O)C1=C(C(=O)NC2CCN(C(=O)c3cncnc3)CC2)C2C=CC1(C(Cc1ccccc1)Nc1ccccc1)O2 (centres unmarked) [Compound 390] | ++ | +
31 | COC(=O)C1=C(C(=O)Nc2ccc(OCCN(C)C)c(F)c2)C2C=CC1(C(Cc1ccccc1)Nc1ccccc1)O2 (centres unmarked) [Compound 500] | ++ | +
32 | COC(=O)C1=C(C(=O)NC2CCN(C(C)C)CC2)C2CCC1(C(Cc1ccccc1)Nc1ccccc1)O2 (centres unmarked) [Compound 366] | + | +
33 | COC(=O)C1=C(C(=O)NC2CCN(S(C)(=O)=O)CC2)C2C=CC1(C(Cc1ccccc1)Nc1ccccc1)O2 (centres unmarked) [Compound 361] | ++ | +
34 | CCCCC(Nc1cc(F)cc(F)c1)C12C=CC(O1)C(C(=O)OC)=C2C(=O)OC (centres unmarked) [Compound 212] | +++ | +
35 | COC(=O)C1=C(C(=O)NCCN(C)C(=O)OC(C)(C)C)C2C=CC1(C(Cc1ccccc1)Nc1ccccc1)O2 (centres unmarked) [Compound 419] | ++ | +
36 | COC(=O)C1=C(C(=O)NNc2ccccc2)C2C=CC1(C(Cc1ccccc1)Nc1cc(F)cc(F)c1)O2 (centres unmarked) [Compound 205] | ++ | ++
37 | CC(C)(C)OC(=O)C1=C(C(=O)OC(C)(C)C)C2(C(Cc3ccccc3)Nc3ccc(F)cc3F)C=CC1O2 (centres unmarked) [Compound 313] | +++ | +
38 | COC(=O)C1=C(C(=O)NNc2cc(C(F)(F)F)cc(C(F)(F)F)c2)C2(C(Cc3ccccc3)Nc3cc(F)cc(F)c3)C=CC1O2 (centres unmarked) [Compound 316] | ++ | +
39 | CCCCC(Nc1ccccc1)C12C=CC(O1)C(C(=O)NC1CCN(C)CC1)=C2C(=O)OC (centres unmarked) [Compound 267] | ++ | ++
40 | COC(=O)C1=C(C(=O)Nc2ccc(OC)nc2)C2C=CC1(C(Cc1ccccc1)Nc1cc(F)cc(Cl)c1)O2 (centres unmarked) [Compound 218] | +++ | +
41 | COC(=O)C1=C(C(=O)NCCN(C)C)C2C=CC1(C(Cc1ccccc1F)Nc1cc(F)cc(F)c1)O2 (centres unmarked) [Compound 455] | ++ | ++
42 | CNC(=O)C1=C(C(=O)Nc2ccccc2)C2C=CC1(C(Cc1ccccc1)Nc1ccccc1)O2 (centres unmarked) [Compound 305] | + | +
43 | CCN(CC)CCNC(=O)C1=C(C(=O)OC)C2(C(Cc3ccc(C)cc3)Nc3cc(F)cc(F)c3)C=CC1O2 (centres unmarked) [Compound 430] | ++ | ++
